Source: article PMC10197068 (Bioconjugate Chemistry, 2023)
Where “and” joins values, the source holds several entries; their conditions need not be identical. Equal values may be shown once.

Assays:
[1] = tested on: G2T6 (DNA, G4) AGGGTTAGGGTTAGGGTTAGGGTTATTATTATTATTATTAGGGTTAGGGTTAGGGTTAGGG; assay: CD melting at 295 nm; settings: 100 mM NaCl, 10 mM Li cacodylate, pH 7.3, 3 μM DNA
[2] = tested on: G2T1 (DNA, G4) AGGGTTAGGGTTAGGGTTAGGGTTAGGGTTAGGGTTAGGGTTAGGG; assay: CD melting at 295 nm; settings: 100 mM NaCl, 10 mM Li cacodylate, pH 7.3, 3 μM DNA
[3] = tested on: G2T6 (K+) dimeric HTelo G4 DNA; assay: Emission titration with G2T6 (K+); type: binding, human; settings: Table S2, unit not given, ligand 2 μM, 100 mM KCl, 10 mM Li cacodylate, pH 7.3, exc 440 nm, em 590 nm, triplicate
Experimental: (§1) Next, emission titrations were carried out with the emissive Pt^II compounds M2 and D3–8 and G4/duplex DNA to obtain association constants. Both Na^+ and K^+ stabilized monomeric and dimeric G4 DNA were investigated. Additionally, titrations were carried out with CT-DNA to evaluate the selectivity for G4 versus duplex DNA. Figure 5 summarizes the obtained results (see Figures S24–S37 and Table S2 for a full set of titration data). First discussed are the experiments conducted in Na^+ buffer, in which the G4 topology formed is antiparallel.[41] […] As discussed previously, this could potentially be caused by a “sandwiched” binding mode in which the metal-salphen complex sits between two G-quadruplex units. For dimeric metal-salphen complexes D3–8, however, there are several differences when compared to the CD melting studies. […] Upon increasing the linker length to a two-amino-acid sequence (RR and KK for compounds D4 and D5, respectively), larger Ka values were obtained with minimal change to the pattern of selectivity. […] Increasing the linker length to an eight-amino-acid sequence (RRRRRRRR) led to a similar stabilization of G2T6, while G1 stabilization increased.
(§2) G-Quadruplex oligonucleotides were purchased from Eurogentec (Belgium), and CT-DNA was purchased from Sigma-Aldrich. Stock solutions were prepared via dilution in the appropriate buffers to concentrations of 300–400 μM determined by UV–vis measurements in which increasing amounts of DNA were added to a cuvette and the absorbance at 260 nm recorded using an Agilent Cary UV 60 spectrometer. Prior to use, the DNA stock solutions were annealed by heating at 95 °C for 5 min and then cooling to room temperature overnight.
(§3) Experiments were carried out using a BMG Clariostar Microplate reader with Greiner Bio-One half-volume (100 μL/well) plates. Excitation was carried out at 440 nm and recorded from 500 to 700 nm in addition to a matrix scan at 590 nm. Titrations were carried out using G1, G2T1, and G2T6 (Na^+) G4 DNA (100 mM NaCl, 10 mM Li cacodylate, pH 7.3); G1, G2T1, and G2T6 (K^+) G4 DNA (100 mM KCl, 10 mM Li cacodylate, pH 7.3); and CT-DNA (100 mM KCl, 10 mM Li cacodylate, pH 7.3). Ligand concentration was kept constant at 2 μM, and the following DNA equivalents were tested: 0, 0.1, 0.2, 0.3, 0.4, 0.5, 0.75, 1, 1.5, 2, 3, and 5 (for CT-DNA 10× base pair equivalents were used, i.e., 1 to 50 BPE). Sample preparation was carried out by preparing stock solutions of double concentration ligand (4 μM) and DNA in the appropriate buffer, before 50 μL of each was added to the appropriate well and mixed. Experiments were conducted in triplicate and binding constants were obtained by curve fitting in Graphpad Prism 8 using eq 1.[46] [drawing 1] 1
(§4) Fluorescence response (y) was fitted against DNA concentration (x); R is the machine response, K is the association constant of ligand and DNA, L is the concentration of ligand, and n is the number of binding sites per DNA. The values of L and n were varied so that that the L was equal to the number of salphen units and n was equal to the number of G4 faces per DNA. The matrix scan results were used to plot the titration curves and 500–700 nm scan results were used to confirm that expected curve shapes and shifts were observed.

[4] = tested on: G1 (Na+) monomeric HTelo G4 DNA; assay: Emission titration with G1 (Na+); type: binding, human; settings: Table S2, unit not given, ligand 2 μM, 100 mM NaCl, 10 mM Li cacodylate, pH 7.3, exc 440 nm, em 590 nm, triplicate
Experimental: as §1, §2, §3, §4

[5] = tested on: G1 (Na+) monomeric HTelo G4 DNA, AGGG(TTAGGG)3; assay: CD melting with G1 (Na+); type: binding, human; settings: CD melting at 295 nm, 25 to 95 °C at 2 °C/min; 100 mM NaCl, 10 mM Li cacodylate, pH 7.3; [G4 unit] 6 μM, [salphen unit] 12 μM
Experimental: (§5) Next, the DNA binding properties of the monomeric and dimeric compounds were studied. […] The following notation is used: […] The CD melting experiments were conducted solely with Na^+ stabilized DNA, which forms an antiparallel topology in solution (cf., in the presence of K^+ a mixture of topologies is observed). During the assay the temperature was increased from 25 to 95 °C upon which the intensity of signals with negative ellipticity at ca. 265 nm and positive ellipticity at ca. 295 (characteristic of an antiparallel G4 structure) decreased-see Figure 4a. This indicates the expected unfolding of the G4 DNA structure as the temperature increases. The changes in intensity were subsequently used to produce the corresponding melting curves (Figure 4b) for each sequence in the absence and presence of the different compounds under study. From these curves, the ΔTm values for the different sequences and compounds were determined, and the results are summarized in Figure 4c (see Supplementary Table 1 for values). […] G-Quadruplex oligonucleotides were purchased from Eurogentec (Belgium), and CT-DNA was purchased from Sigma-Aldrich. […] Prior to use, the DNA stock solutions were annealed by heating at 95 °C for 5 min and then cooling to room temperature overnight. Experiments were carried out on a Jasco J-810 spectrophotometer using a 1 cm quartz cuvette. Temperature was controlled using a Peltier module. The signal at 295 nm was monitored as temperature was increased for 25 to 95 °C at a rate of 2 °C/min. CD melting experiments were carried out with the appropriate G4 DNA (100 mM NaCl, 10 mM Li cacodylate, pH 7.3). Sample preparation was carried out by combining stock solutions of ligand and DNA in the appropriate buffer. […] Melting temperatures were obtained by curve fitting in Graphpad Prism 8. The data was normalized and fitted to a variable slope Hill equation, and the melting temperature was defined at the temperature at which y = 0.5.

[6] = tested on: G2T6 (Na+) dimeric HTelo G4 DNA, AGGG(TTAGGG)3(TTA)5(TTAGGG)4; assay: CD melting with G2T6 (Na+); type: binding, human; settings: CD melting at 295 nm, 25 to 95 °C at 2 °C/min; 100 mM NaCl, 10 mM Li cacodylate, pH 7.3; [G4 unit] 6 μM (3 μM dimeric sequence), [salphen unit] 12 μM
Experimental: as §5

[7] = tested on: G2T1 (K+) dimeric HTelo G4 DNA; assay: Emission titration with G2T1 (K+); type: binding, human; settings: Table S2, unit not given, ligand 2 μM, 100 mM KCl, 10 mM Li cacodylate, pH 7.3, exc 440 nm, em 590 nm, triplicate
Experimental: as §1, §2, §3, §4

[8] = tested on: G2T6 (Na+) dimeric HTelo G4 DNA; assay: Emission titration with G2T6 (Na+); type: binding, human; settings: Table S2, unit not given, ligand 2 μM, 100 mM NaCl, 10 mM Li cacodylate, pH 7.3, exc 440 nm, em 590 nm, triplicate
Experimental: as §1, §2, §3, §4

[9] = tested on: G2T1 (Na+) dimeric HTelo G4 DNA, AGGG(TTAGGG)7; assay: CD melting with G2T1 (Na+); type: binding, human; settings: CD melting at 295 nm, 25 to 95 °C at 2 °C/min; 100 mM NaCl, 10 mM Li cacodylate, pH 7.3; [G4 unit] 6 μM (3 μM dimeric sequence), [salphen unit] 12 μM
Experimental: as §5

CT-DNA (duplex DNA) = assay: Emission titration with duplex DNA; type: binding; settings: CT-DNA up to 50 base pair equivalents; 100 mM KCl, 10 mM Li cacodylate, pH 7.3; ligand 2 μM
Experimental: Next, emission titrations were carried out with the emissive Pt^II compounds M2 and D3–8 and G4/duplex DNA to obtain association constants. Both Na^+ and K^+ stabilized monomeric and dimeric G4 DNA were investigated. Additionally, titrations were carried out with CT-DNA to evaluate the selectivity for G4 versus duplex DNA. Figure 5 summarizes the obtained results (see Figures S24–S37 and Table S2 for a full set of titration data). First discussed are the experiments conducted in Na^+ buffer, in which the G4 topology formed is antiparallel.[41] […] As discussed previously, this could potentially be caused by a “sandwiched” binding mode in which the metal-salphen complex sits between two G-quadruplex units. For dimeric metal-salphen complexes D3–8, however, there are several differences when compared to the CD melting studies. […] Upon increasing the linker length to a two-amino-acid sequence (RR and KK for compounds D4 and D5, respectively), larger Ka values were obtained with minimal change to the pattern of selectivity. […] Increasing the linker length to an eight-amino-acid sequence (RRRRRRRR) led to a similar stabilization of G2T6, while G1 stabilization increased. […]
G-Quadruplex oligonucleotides were purchased from Eurogentec (Belgium), and CT-DNA was purchased from Sigma-Aldrich. Stock solutions were prepared via dilution in the appropriate buffers to concentrations of 300–400 μM determined by UV–vis measurements in which increasing amounts of DNA were added to a cuvette and the absorbance at 260 nm recorded using an Agilent Cary UV 60 spectrometer. […]
Experiments were carried out using a BMG Clariostar Microplate reader with Greiner Bio-One half-volume (100 μL/well) plates. Excitation was carried out at 440 nm and recorded from 500 to 700 nm in addition to a matrix scan at 590 nm. […]
Fluorescence response (y) was fitted against DNA concentration (x); R is the machine response, K is the association constant of ligand and DNA, L is the concentration of ligand, and n is the number of binding sites per DNA. […]

[10] = tested on: G1 (K+) monomeric HTelo G4 DNA; assay: Emission titration with G1 (K+); type: binding, human; settings: Table S2, unit not given, ligand 2 μM, 100 mM KCl, 10 mM Li cacodylate, pH 7.3, exc 440 nm, em 590 nm, triplicate
Experimental: as §1, §2, §3, §4

[11] = tested on: G2T1 (Na+) dimeric HTelo G4 DNA; assay: Emission titration with G2T1 (Na+); type: binding, human; settings: Table S2, unit not given, ligand 2 μM, 100 mM NaCl, 10 mM Li cacodylate, pH 7.3, exc 440 nm, em 590 nm, triplicate
Experimental: as §1, §2, §3, §4

[12] = 6 μM compound (12 μM salphen units)

C[N+](C)(C)CCOc1ccc(C=Nc2ccccc2N=Cc2ccc(OCC[N+](C)(C)C)cc2[O-])c([O-])c1.[Ni+2]
ΔTm ([1]; 12 μM compound): 17 °C
ΔTm ([2]; 12 μM compound): 16 °C

C[N+](C)(C)CCOc1ccc(C=Nc2ccc(C(=O)NCc3cn(CC(=O)N[C@@H](CCCNC(=N)N)C(=O)N[C@@H](CCCCN)C(=O)N[C@@H](CCCCN)C(=O)N[C@@H](CCCNC(=N)N)C(=O)N[C@@H](Cn4cc(CNC(=O)c5ccc(N=Cc6ccc(OCC[N+](C)(C)C)cc6[O-])c(N=Cc6ccc(OCC[N+](C)(C)C)cc6[O-])c5)nn4)C(N)=O)nn3)cc2N=Cc2ccc(OCC[N+](C)(C)C)cc2[O-])c([O-])c1.[Pt+2].[Pt+2]
ΔTm [1, 12]: 13.8 °C
ΔTm [2, 12]: 16.3 °C

C[N+](C)(C)CCOc1ccc(C=Nc2ccc(C(=O)NCc3cn(CC(=O)N[C@@H](CCCNC(=N)N)C(=O)N[C@@H](CCCNC(=N)N)C(=O)N[C@@H](Cn4cc(CNC(=O)c5ccc(N=Cc6ccc(OCC[N+](C)(C)C)cc6[O-])c(N=Cc6ccc(OCC[N+](C)(C)C)cc6[O-])c5)nn4)C(N)=O)nn3)cc2N=Cc2ccc(OCC[N+](C)(C)C)cc2[O-])c([O-])c1.[Pt+2].[Pt+2]
ΔTm [2, 12]: 14.6 °C

C[N+](C)(C)CCOc1ccc2c(c1)[O][Pt][O]c1cc(OCC[N+](C)(C)C)ccc1C=Nc1ccccc1N=C2 [Compound M2, reference compound]
Association constant G2T6 (K+), mean [3]: 1.44
Association constant G1 (Na+), mean [4]: 1.70
ΔTm G1 (Na+) [5]: 12.72 °C
ΔTm G2T6 (Na+) [6]: 19.55 °C and 19 °C
Association constant G2T1 (K+), mean [7]: 0.80
Association constant G2T6 (Na+), mean [8]: 2.93
ΔTm G2T1 (Na+) [9]: 21.67 °C and 21 °C
Ka for duplex DNA (CT-DNA (duplex DNA)): 7.31 × 10^4 M^–1
Association constant G1 (K+), mean [10]: 2.00
Association constant G2T1 (Na+), mean [11]: 1.70

C[N+](C)(C)CCOc1ccc2c(c1)[O][Ni][O]c1cc(OCC[N+](C)(C)C)ccc1C=Nc1ccccc1N=C2 [Compound M1, reference compound]
ΔTm G1 (Na+) [5]: 12.26 °C
ΔTm G2T6 (Na+) [6]: 18.77 °C
ΔTm G2T1 (Na+) [9]: 16.58 °C and 16 °C
